Key:
[1] = xn = mol fraction of the nth substance listed; settings: 308.15 K, 101.33 kPa, Liquid
[2] = molar heat capacity at constant pressure; xn = mol fraction of the nth substance listed; settings: Liquid
[3] = refractive index (Na D-line) (dimensionless); xn = mol fraction of the nth substance listed; settings: 308.15 K, 101.33 kPa, Liquid, Standard Abbe refractometry
[4] = excess molar enthalpy (molar enthalpy of mixing); xn = mol fraction of the nth substance listed; settings: 308.15 K, 101.33 kPa, Liquid

OCCCc1ccccc1 [3-phenyl-1-propanol] + C[S+](C)[O-]
Settings | excess molar enthalpy [kcal/mol] | mass density [kg/m3] | refractive index | viscosity [mPa·s]
[1], x2 = 0.0936 | – | 996.28 | – | 8.592
[1], x2 = 0.1499 | – | 999.45 | – | 7.792
[1], x2 = 0.277 | – | 1007.07 | – | 6.19
[1], x2 = 0.3915 | – | 1014.73 | – | 5.032
[1], x2 = 0.4564 | – | 1019.55 | – | 4.488
[1], x2 = 0.578 | – | 1029.68 | – | 3.629
[1], x2 = 0.6526 | – | 1036.85 | – | 3.18
[1], x2 = 0.7233 | – | 1044.45 | – | 2.801
[1], x2 = 0.7879 | – | 1052.21 | – | 2.487
[1], x2 = 0.8512 | – | 1060.69 | – | 2.208
[1], x2 = 0.9027 | – | 1068.4 | – | 1.993
[1], x2 = 0.9543 | – | 1076.93 | – | 1.801
[3], x2 = 0.0936 | – | – | 1.5188 | –
[3], x2 = 0.1499 | – | – | 1.5172 | –
[3], x2 = 0.277 | – | – | 1.5132 | –
[3], x2 = 0.3915 | – | – | 1.509 | –
[3], x2 = 0.4564 | – | – | 1.5063 | –
[3], x2 = 0.578 | – | – | 1.5008 | –
[3], x2 = 0.6526 | – | – | 1.4969 | –
[3], x2 = 0.7233 | – | – | 1.4931 | –
[3], x2 = 0.7879 | – | – | 1.489 | –
[3], x2 = 0.8512 | – | – | 1.4847 | –
[3], x2 = 0.9027 | – | – | 1.4811 | –
[3], x2 = 0.9543 | – | – | 1.4771 | –
[4], x2 = 0.0737 | -0.0543 | – | – | –
[4], x2 = 0.1373 | -0.0822 | – | – | –
[4], x2 = 0.1927 | -0.0951 | – | – | –
[4], x2 = 0.2414 | -0.103 | – | – | –
[4], x2 = 0.3232 | -0.101 | – | – | –
[4], x2 = 0.389 | -0.0946 | – | – | –
[4], x2 = 0.4885 | -0.0796 | – | – | –
[4], x2 = 0.56 | -0.0645 | – | – | –
[4], x2 = 0.6563 | -0.0423 | – | – | –
[4], x2 = 0.7413 | -0.0215 | – | – | –
[4], x2 = 0.7925 | -0.0115 | – | – | –
[4], x2 = 0.8514 | -0.00311 | – | – | –
[4], x2 = 0.8843 | 0.00167 | – | – | –
[4], x2 = 0.9162 | 0.00335 | – | – | –
[4], x2 = 0.9386 | 0.0043 | – | – | –
[4], x2 = 0.9582 | 0.00406 | – | – | –
[4], x2 = 0.9787 | 0.00263 | – | – | –

molar heat capacity at constant pressure [J/K/mol], [2], 101 kPa
Settings | 298.15 K | 308.15 K | 318.15 K
x2 = 0 | 276.3 | 284.1 | 291.8
x2 = 0.0905 | 259.9 | 265.7 | 273
x2 = 0.1204 | 250.3 | 256 | 262.8
x2 = 0.1712 | 243.4 | 249.7 | 256.2
x2 = 0.3375 | 211.1 | 215.5 | 220
x2 = 0.452 | 196.9 | 200 | 203.5
x2 = 0.5571 | 185.1 | 187.5 | 190.7
x2 = 0.6101 | 185.8 | 188.7 | 191.4
x2 = 0.6567 | 177 | 178.3 | 180.9
x2 = 0.7396 | 165.6 | 167.2 | 170
x2 = 0.806 | 162.2 | 163.9 | 165.4
x2 = 0.8718 | 159.2 | 160.5 | 161.9
x2 = 0.9487 | 148.5 | 149.3 | 151.3

OCCc1ccccc1 [2-phenylethanol] + C[S+](C)[O-]
Settings | excess molar enthalpy [kcal/mol] | mass density [kg/m3] | refractive index | viscosity [mPa·s]
[1], x2 = 0.0435 | – | 1011.25 | – | 7.049
[1], x2 = 0.1521 | – | 1017.45 | – | 6.133
[1], x2 = 0.2758 | – | 1024.6 | – | 5.162
[1], x2 = 0.3564 | – | 1029.49 | – | 4.611
[1], x2 = 0.4566 | – | 1035.91 | – | 3.976
[1], x2 = 0.5477 | – | 1042.18 | – | 3.446
[1], x2 = 0.6247 | – | 1047.95 | – | 3.052
[1], x2 = 0.7102 | – | 1054.95 | – | 2.652
[1], x2 = 0.7707 | – | 1060.33 | – | 2.398
[1], x2 = 0.8346 | – | 1066.5 | – | 2.157
[1], x2 = 0.8653 | – | 1069.64 | – | 2.056
[1], x2 = 0.9433 | – | 1078.31 | – | 1.806
[3], x2 = 0.0435 | – | – | 1.5257 | –
[3], x2 = 0.1521 | – | – | 1.5224 | –
[3], x2 = 0.2758 | – | – | 1.5179 | –
[3], x2 = 0.3564 | – | – | 1.5145 | –
[3], x2 = 0.4566 | – | – | 1.5099 | –
[3], x2 = 0.5477 | – | – | 1.5052 | –
[3], x2 = 0.6247 | – | – | 1.5008 | –
[3], x2 = 0.7102 | – | – | 1.4956 | –
[3], x2 = 0.7707 | – | – | 1.4916 | –
[3], x2 = 0.8346 | – | – | 1.487 | –
[3], x2 = 0.8653 | – | – | 1.4846 | –
[3], x2 = 0.9433 | – | – | 1.4783 | –
[4], x2 = 0.0655 | -0.093 | – | – | –
[4], x2 = 0.123 | -0.15 | – | – | –
[4], x2 = 0.1738 | -0.185 | – | – | –
[4], x2 = 0.219 | -0.207 | – | – | –
[4], x2 = 0.2961 | -0.226 | – | – | –
[4], x2 = 0.3593 | -0.233 | – | – | –
[4], x2 = 0.4569 | -0.222 | – | – | –
[4], x2 = 0.5286 | -0.207 | – | – | –
[4], x2 = 0.6273 | -0.175 | – | – | –
[4], x2 = 0.7163 | -0.137 | – | – | –
[4], x2 = 0.7709 | -0.112 | – | – | –
[4], x2 = 0.8347 | -0.0825 | – | – | –
[4], x2 = 0.8707 | -0.0643 | – | – | –
[4], x2 = 0.9099 | -0.0459 | – | – | –
[4], x2 = 0.9309 | -0.0351 | – | – | –
[4], x2 = 0.9528 | -0.0234 | – | – | –
[4], x2 = 0.9759 | -0.012 | – | – | –

molar heat capacity at constant pressure [J/K/mol], [2], 101.33 kPa
Settings | 298.15 K | 308.15 K | 318.15 K
x2 = 0 | 239.6 | 245.3 | 251.6
x2 = 0.08581 | 235 | 240.8 | 246.5
x2 = 0.1638 | 218.3 | 223.2 | 228.7
x2 = 0.2999 | 190.7 | 194.2 | 198.1
x2 = 0.4205 | 185 | 188.4 | 191.3
x2 = 0.519 | 185.5 | 188.2 | 190.7
x2 = 0.6293 | 169.3 | 171.3 | 173.6
x2 = 0.6713 | 171 | 172.8 | 174.9
x2 = 0.7066 | 162.6 | 164.6 | 166.5
x2 = 0.7919 | 162.7 | 164.8 | 166.8
x2 = 0.8596 | 156.2 | 157.3 | 159.1
x2 = 0.937 | 157.8 | 159.6 | 160
x2 = 0.9688 | 143.5 | 144.8 | 145.9

OCc1ccccc1 [benzenemethanol] + C[S+](C)[O-]
Settings | excess molar enthalpy [kcal/mol] | mass density [kg/m3] | refractive index | viscosity [mPa·s]
[1], x2 = 0.0641 | – | 1037.17 | – | 3.957
[1], x2 = 0.1255 | – | 1040.32 | – | 3.787
[1], x2 = 0.2283 | – | 1045.4 | – | 3.49
[1], x2 = 0.3275 | – | 1050.05 | – | 3.201
[1], x2 = 0.4152 | – | 1054.07 | – | 2.949
[1], x2 = 0.5117 | – | 1058.52 | – | 2.686
[1], x2 = 0.5942 | – | 1062.41 | – | 2.477
[1], x2 = 0.6646 | – | 1065.87 | – | 2.306
[1], x2 = 0.7406 | – | 1069.8 | – | 2.134
[1], x2 = 0.8125 | – | 1073.74 | – | 1.988
[1], x2 = 0.8745 | – | 1077.57 | – | 1.858
[1], x2 = 0.9388 | – | 1081.3 | – | 1.748
[3], x2 = 0.0641 | – | – | 1.5328 | –
[3], x2 = 0.1255 | – | – | 1.5297 | –
[3], x2 = 0.2283 | – | – | 1.5252 | –
[3], x2 = 0.3275 | – | – | 1.5204 | –
[3], x2 = 0.4152 | – | – | 1.5157 | –
[3], x2 = 0.5117 | – | – | 1.5099 | –
[3], x2 = 0.5942 | – | – | 1.5048 | –
[3], x2 = 0.6646 | – | – | 1.4998 | –
[3], x2 = 0.7406 | – | – | 1.4946 | –
[3], x2 = 0.8125 | – | – | 1.4891 | –
[3], x2 = 0.8745 | – | – | 1.4838 | –
[3], x2 = 0.9388 | – | – | 1.4785 | –
[4], x2 = 0.0571 | -0.114 | – | – | –
[4], x2 = 0.108 | -0.194 | – | – | –
[4], x2 = 0.1537 | -0.249 | – | – | –
[4], x2 = 0.195 | -0.291 | – | – | –
[4], x2 = 0.2666 | -0.332 | – | – | –
[4], x2 = 0.3264 | -0.358 | – | – | –
[4], x2 = 0.4209 | -0.358 | – | – | –
[4], x2 = 0.492 | -0.34 | – | – | –
[4], x2 = 0.5924 | -0.304 | – | – | –
[4], x2 = 0.6856 | -0.247 | – | – | –
[4], x2 = 0.744 | -0.201 | – | – | –
[4], x2 = 0.8135 | -0.147 | – | – | –
[4], x2 = 0.8532 | -0.118 | – | – | –
[4], x2 = 0.8971 | -0.0825 | – | – | –
[4], x2 = 0.9208 | -0.0614 | – | – | –
[4], x2 = 0.9457 | -0.0392 | – | – | –
[4], x2 = 0.9721 | -0.021 | – | – | –

molar heat capacity at constant pressure [J/K/mol], [2], 101.33 kPa
Settings | 298.15 K | 308.15 K | 318.15 K
x2 = 0 | 200.4 | 203.9 | 207.2
x2 = 0.08706 | 196.4 | 201.5 | 206.4
x2 = 0.1439 | 189.3 | 193.7 | 198.6
x2 = 0.2708 | 168.3 | 172.9 | 177
x2 = 0.3817 | 167 | 170.3 | 174.1
x2 = 0.4964 | 162.3 | 164.4 | 166.7
x2 = 0.5422 | 160.1 | 162.4 | 164.9
x2 = 0.5966 | 159.3 | 161.5 | 163.6
x2 = 0.6863 | 146.6 | 149.1 | 150.8
x2 = 0.7711 | 146.9 | 148.1 | 149.8
x2 = 0.8577 | 149.7 | 151.2 | 152.5
x2 = 0.9237 | 149 | 150.2 | 151.4
x2 = 0.9508 | 146.4 | 147.6 | 148.8
